# Reference: publication PMC8161026, “Synthesis and Anticancer Activity Evaluation of 5-[2-Chloro-3-(4-nitrophenyl)-2-propenylidene]-4-thiazolidinones” (Molecules, 2021)
# Tests used:
# [1] = in vitro; conditions: human
# Description: (§1) Another part of our study was to determine the influence of compounds 2f, 2i, 2j, and 2h on normal human blood lymphocytes (Figure 5). […] Thus, normal blood lymphocytes are blood cells, as well as cells of leukemia cell lines, therapeutic index (TI) of compounds 2f, 2h, and 2j was calculated as GI50 (normal blood lymphocyte)/GI50 (leukemia cell line) (Table 5).
# (§2) Figure 5 Human lymphocyte viability after 48 h of 2f, 2i, 2j, 2h, and Ciminalum drug exposure was estimated by MTT assay.
# (§3) The assay was performed by using 3-(4,5-dimethylthiazole-2-yl)- 2,5-diphenyltetrazolium bromide (MTT). Confluent cells, cultured for 24 h with 0.1, 1, 5, 10, 20, 30, and 100 µM concentrations of studied compounds in 24-well plates were washed with PBS. MTT was dissolved in PBS, and 25 µL were added to each well. Plates were incubated for 4 h at 37 °C in 5% CO2 in an incubator. The medium with MTT was removed, and 1 mL of DMSO was added to the attached cells. Furthermore, cells were incubated for 5–10 min in RT and then 10 µl of Sorensen buffer was added to each well. The absorbance of converted dye in living cells was measured at a wavelength of 570 nm. The cell viability of breast cancer cells, gastric cancer cells, and human colon cancer cells cultured in the presence of ligands was calculated as percent of control cells.
# (§4) First, 20 mL of venous blood was taken from volunteers (Ethical protocol number 2, 27 January 2019) and collected in the presence of 200 μL of undiluted fresh heparin (1/100). Sterile blood was diluted 2 times with 0.9% NaCl under the sterile conditions. Isolation of lymphocytes was performed in a density gradient of ficol-verografin using the protocol of the manufacturer (Lympoprep, NYCOMED PHARMA AS, Oslo Norway). The resulting lymphocytes were resuspended in the RPMI-1640 medium and cultured for several days (up to 10 days). To separate the lymphocytes from the monocytes, cell suspension was left for 24 h. After 24 h of culture, monocytes were attached, while lymphocytes were transferred to a fresh Falcon tube (15 mL). To stimulate the proliferation of lymphocytes, they were cultured on CD3+ antibody-coated plastic plate in the RPMI-1640 medium supplemented with 20% FBS.
# [2] = tested on: MDA-MB-231 (breast cancer); test: MTT cell viability assay; format: cell-based; conditions: Homo sapiens; MDA-MB-231, MTT, 24 h
# Description: (§5) In the second stage of the research, Ciminalum-thiazolidinone hybrids were investigated for antitumor activity on the lines of gastric cancer (AGS), human colon cancer (DLD-1), and breast cancers (MCF-7 and MDA-MB-231). The study was performed in the MTT assay according to the method described previously. The studied cancer line was sensitive to the action of the studied compounds that inhibited its growth in micromolar ranges of GI50. The hit compounds that inhibited the growth of all four cancer lines with the lowest GI50 values were [5-[2-chloro-3-(4-nitrophenyl)prop-2-enylidene]-rhodanines 2c, 2d, 2h, and 2i (Table 4).
# [3] = tested on: DLD-1 (human colon cancer); test: MTT cell viability assay; format: cell-based; conditions: DLD-1, MTT, 24 h
# Description: as §5
# [4] = tested on: MCF-7 (breast cancer); test: MTT cell viability assay; format: cell-based; conditions: Homo sapiens, MCF7; MCF-7, MTT, 24 h
# Description: as §5
# [5] = tested on: AGS (gastric cancer); test: MTT cell viability assay; format: cell-based; conditions: Homo sapiens, 24 h
# Description: as §5
# [6] = tested on: Jurkat T-cells; parameters: method as in doi:10.7124/bc.00003D; conditions: cited from earlier work
# [7] = tested on: normal human blood lymphocytes; test: in vitro
# Description: as §1, §2, §3, §4
# [8] = tested on: breast cancer lines MCF-7 and MDA-MB-231; test: MTT cell viability assay, both breast cancer lines; format: cell-based; conditions: Homo sapiens; MCF-7 and MDA-MB-231, MTT; read-out: GI50 level
# Description: as §5
SMILES,GI50 at 48 h [1] [µM],melting point [°C],GI50 [2] [µM],GI50 [3] [µM],GI50 [4] [µM],GI50 [5] [µM],GI50 [8] [µM],caspase-7 activation [6],cleavage of PARP-1 and DFF45 [6],toxicity toward normal human blood lymphocytes [7]
"O=C/C(Cl)=C/c1ccc([N+](=O)[O-])cc1 [Ciminalum, (2Z)-2-chloro-3-(4-nitrophenyl)prop-2-enal, reference compound]",10.4,,,,,,,,,
O=C1NC(=N/c2ccc(F)cc2)/C(=C/C(Cl)=C/c2ccc([N+](=O)[O-])cc2)S1 [III],,,,,,,,weak,weak,
"O=C1/C(=C/C(Cl)=C/c2ccc([N+](=O)[O-])cc2)SC(=S)N1CCS(=O)(=O)O [Compound 2g, 2-{5-[(Z,2Z)-2-Chloro-3-(4-nitrophenyl)-2-propenylidene]-4-oxo-2-thioxothiazolidin-3-yl}-1-ethanesulfonic acid]",,> 260,16.8,27.5,26.4,18,,,,low toxicity
"O=C(NN1C(=O)/C(=C/C(Cl)=C/c2ccc([N+](=O)[O-])cc2)SC1=S)c1csc2c1CCCC2 [Compound 2d, 5-[(Z,2Z)-2-Chloro-3-(4-nitrophenyl)-2-propenylidene]-4-oxo-3-(4,5,6,7-tetrahydrobenzo[b]thiophen-3-ylcarboxamido)-2-thioxo-4-thiazolidinone]",,> 230,3.11,5.47,4.45,4.08,,,,
"O=C1NC(=O)/C(=C/C(Cl)=C/c2ccc([N+](=O)[O-])cc2)S1 [Compound 2a, 5-[(Z,2Z)-2-Chloro-3-(4-nitrophenyl)-2-propenylidene]-2,4-thiazolidinedione]",,> 270,13.9,14,18,18.7,,,,
"O=C(Cc1ccccc1Nc1c(Cl)cccc1Cl)NN1C(=O)/C(=C/C(Cl)=C/c2ccc([N+](=O)[O-])cc2)SC1=S [Compound 2e, N^1-{5-[(Z,2Z)-2-Chloro-3-(4-nitrophenyl)-2-propenylidene]-4-oxo-2-thioxothiazolidin-3-yl}-2-[2-(2,6-dichloroanilino)phenyl]acetamide]",,257 to 258,15.8,16,17.9,17.1,,,,

# Further lines, with some results ahead:
GI50 at 48 h [1] [µM],melting point [°C],GI50 [2] [µM],GI50 [3] [µM],GI50 [4] [µM],GI50 [5] [µM],GI50 [8] [µM],SMILES,caspase-7 activation [6],cleavage of PARP-1 and DFF45 [6],toxicity toward normal human blood lymphocytes [7]
,220 to 222,15.3,10,18.1,13.1,,"O=C(O)CC(C(=O)O)N1C(=O)/C(=C/C(Cl)=C/c2ccc([N+](=O)[O-])cc2)SC1=S (stereo not drawn) [Compound 2k, 2-{5-[(Z,2Z)-2-Chloro-3-(4-nitrophenyl)-2-propenylidene]-4-oxo-2-thioxothiazolidin-3-yl}succinic acid]",,,
,205 to 207,17.5,9.19,21.2,12.6,,"O=C(O)CCC(C(=O)O)N1C(=O)/C(=C/C(Cl)=C/c2ccc([N+](=O)[O-])cc2)SC1=S (stereo not drawn) [Compound 2l, 2-{5-[(Z,2Z)-2-Chloro-3-(4-nitrophenyl)-2-propenylidene]-4-oxo-2-thioxothiazolidin-3-yl}pentanedioic acid]",,,
> 100,> 220,0.95,9.22,1.73,3.2,0.95 to 1.74,"O=C(O)CCCCCN1C(=O)/C(=C/C(Cl)=C/c2ccc([N+](=O)[O-])cc2)SC1=S [Compound 2i, 6-{5-[(Z,2Z)-2-Chloro-3-(4-nitrophenyl)-2-propenylidene]-4-oxo-2-thioxothiazolidin-3-yl}hexanoic acid]",,,low toxicity
